In experiment [1] the test system is NASH mice (STAM model). As to the kind of experiment: In vivo study 2 to assess effects on fibrosis (STAM model). On the set-up: species or system C57BL/6 mice. The source says:
(§1) The study was made on STAM model.
(§2) Pathogen-free fourteen day-pregnant C57BL/6 mice have been obtained from Japan SLC, Inc. (Japan). NASH has been established in male mice by a single subcutaneous injection of streptozotocin (Sigma, USA) after birth and feeding with a high fat diet (CLEA Japan, Japan) ad libitum after four weeks of age (day 28±2). Mice have been randomized into three groups of ten mice at six weeks of age (day 42±2), and three groups of ten mice at nine weeks of age (day 63±2), in the days before the start of treatment. Individual body weights have been measured daily during the treatment period. Food consumption has been measured twice per week during the treatment period. Survival, clinical signs and behavior of mice have been monitored daily.
The fibrosis in vivo study had 3 arms:
(§3) Group 1 (Vehicle): Ten NASH mice have been orally administered the same vehicle (0.5% methyl cellulose in water) as the mice receiving compound (1).
Group 2 (Telmisartan): Five mice have been administered the same vehicle supplemented with Telmisartan at a dose of 100 mg/kg (in 0.5% methyl cellulose in water) once daily from nine to twelve (9 to 12) weeks of age.
Group 3 (compound (1)): Ten NASH mice have been orally administered vehicle supplemented with compound (1) at a dose of 100 mg/kg (in 0.5% methyl cellulose in water) once daily from nine to twelve (9 to 12) weeks of age. The assessed parameters and histological outcome measures are described below.
(§4) The following measurements have been conducted for both in vivo studies: • Individual liver weight • Individual body weight • Plasma ALT (Alanine AminoTransferase), AST (Aspartate AminoTransferase), triglyceride, and total cholesterol have been measured by FUJI DRI-CHEM (Fujifilm, Japan) • Liver triglyceride has been quantified by Triglyceride E-test kit (Wako, Japan) • Histological analyses for liver sections (according to routine methods) • HE (Hematoxylin Eosin) staining and estimation of NAFLD Activity score (NAS) […]

The test system of experiment [2] is NASH mice (STAM model). The experiment in a line: In vivo study 1 to assess effects on NASH (STAM model). Set-up: species or system C57BL/6 mice.
Source text: as §1, §2
The NASH in vivo study had 3 arms:
as §3
Group 2 (Telmisartan): Five mice have been administered the same vehicle supplemented with Telmisartan at a dose of 100 mg/kg (in 0.5% methyl cellulose in water) once daily from six to nine (6 to 9) weeks of age.
Group 3 (compound (1)): Ten NASH mice have be orally administered vehicle supplemented with compound (1) at a dose of 100 mg/kg (in 0.5% methyl cellulose in water) once daily from six to nine (6 to 9) weeks of age. The assessed parameters and histological outcome measures are described below.
as §4

The subject of a further experiment is STAM animal model. To be noted: reference compound; cited from earlier work.

As for `O=C(O)CCC(=O)c1ccc(OCCN2CCN(c3ccccn3)CC2)cc1` [Compound (1)], the “amount of liver triglycerides (TG)” value with NASH mice (STAM model) [1] (100 mg/kg orally once daily from 9 to 12 weeks of age (FIG. 2)) and in the experiment on NASH mice (STAM model) [2] (100 mg/kg orally once daily from 6 to 9 weeks of age (FIG. 2)) was “reduction” each time. Besides, the “amount of plasma triglycerides (TG)” value in the experiment with NASH mice (STAM model) [1] (100 mg/kg orally once daily from 9 to 12 weeks of age (FIG. 3), effect especially in study 2) is “reduction”; in the experiment on NASH mice (STAM model) [2] (100 mg/kg orally once daily from 6 to 9 weeks of age (FIG. 3)), “reduction”. The “NAFLD activity score (NAS)” value with NASH mice (STAM model) [1] (100 mg/kg orally once daily from 9 to 12 weeks of age, in comparison to both vehicle and Telmisartan) is “significant reduction”; with NASH mice (STAM model) [2] (100 mg/kg orally once daily from 6 to 9 weeks of age, in comparison to both vehicle and Telmisartan), “significant reduction”.
Consider `CCCc1nc2c(C)cc(-c3nc4ccccc4n3C)cc2n1Cc1ccc(-c2ccccc2C(=O)O)cc1` [Telmisartan], for which the “activity to treat NASH and fibrosis” value in the experiment with STAM animal model is on record as “active”.

The record behind these values is patent publication US11324743B2, “Treatment for the non alcoholic steatohepatitis and fibrosis” (METABOLYS, priority 2016, dated 2022).
